Earlier results, collected in paper PMC8252455, “Prediction of a clinically effective dose of THY1773, a novel V 1B receptor antagonist, based on preclinical data” (Biopharmaceutics & Drug Disposition, 2021).

Tested on: depressive symptoms
Set-up: method as in Griebel, Beeské, & Stahl, 2012
Settings: patients with MDD; ref Griebel, Beeské, & Stahl, 2012; cited from earlier work

## COc1ccc(S(=O)(=O)N2C(=O)[C@@](c3ccccc3OC)(N3C[C@H](O)C[C@H]3C(=O)N(C)C)c3cc(Cl)ccc32)c(OC)c1 [SSR149415]
  Antidepressant effect in MDD trials: failed to demonstrate clear antidepressant effects
